10 compounds from patent publication US9890185B2, “Urea derivatives useful as kinase inhibitors” (Respivert Limited, priority 2013, dated 2018) can be followed below.

Structures are written as SMILES. Where only a bound is given, the exact number is not on record here.

One assay has as its system HT29 cells. The experiment in a line: IL-1β-induced IL-8 release in HT29 cells (assay d). In kind it is cell-based. Conditions: Homo sapiens, HT-29; IL-1β-stimulated HT29 cells; read-out: IC50 Values for Inhibition of Cytokine Release, HT29 cells IL-8. How it is done: HT29 cells, a human colon adenocarcinoma cell line, are plated in a 96 well plate (24 hrs) and pre-treated with compounds at the desired concentration for 2 hours before addition of 5 ng/mL of IL-1β (Abcam) for 24 hours. Supernatants are harvested for IL-8 quantification by Sandwich ELISA (Duo-set, R&D System). The IC50 is determined from the dose response curve.

For assay [1], the system named is PBMCs. The experiment in a line: LPS-induced IL-8 release in PBMC cells (assay b). As to conditions: Homo sapiens, PBMC; LPS-stimulated PBMCs; read-out: IC50 Values for Inhibition of Cytokine Release, PBMCs IL-8. In kind it is cell-based, human. Put shortly:
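Cytokines (TNFα, IL-8) in supernatants were quantified by sandwich ELISA after a 24 h challenge with 1 ng/mL E. coli LPS at 37° C, 5% CO2. Healthy-donor PBMCs had been exposed to compound for 2 h beforehand. IC50 values were fitted from the concentration-response curves.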

The target in another assay is c-Src (Homo sapiens (Human), UniProt P12931). In words: c-Src enzyme inhibition (FRET, Z-LYTE). It counts as biochemical. The procedure, abridged:
(§1)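 Each kinase is exposed to test compound for 2 hr at RT before substrate and ATP (pre-mix levels: c-Src 800 μM, Syk 60 μM) start a 1 hr reaction. A 1 hr protease step removes signal from non-phosphorylated peptide; inhibition against uninhibited control yields IC50.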

In the next assay the target is GSK 3α (Homo sapiens (Human), UniProt P49840). The experiment in a line: GSK 3α enzyme inhibition (FRET, Z-LYTE, Method 2). It counts as biochemical. Conditions: read-out: IC50 Values for Enzyme Inhibition, GSK3α. The procedure, abridged:
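Recombinant human GSK3α was preincubated with compound (stocks 4, 0.4, 0.04 or 0.004 μg/mL) at RT, 2 hr for Method 1 and 105 min for Method 2. FRET peptide (8 μM stock) and ATP (40 μM stock) were added for 1 hr, then protease development for 1 hr. IC50 was taken from concentration–response curves.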

Assay [2] deals with PBMCs. In words: Cell mitosis assay in PBMCs (assay g). In kind it is cell-based. As to conditions: Homo sapiens, PBMC, test compound 5 μg/mL. Put shortly: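 Metaphase arrest with 0.1 μg/mL demecolcine during the final 2 hr of a 20 hr compound exposure, which follows 48 hr of 2% PHA stimulation of healthy-donor human PBMCs. Mitotic lymphocytes counted by flow cytometry (anti-phospho-histone 3 plus propidium iodide). Inhibition expressed relative to 0.5% DMSO.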

The next assay relates to d-U937 cells. The experiment in a line: Accumulation of β catenin in d-U937 cells (assay m). In kind it is cell-based, human. Conditions: percentage relative to Reference Compound at 1 μg/mL. The procedure, abridged:
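Read-out: colourimetric cell-based immunoassay for endogenous β-catenin (OD450 minus 655 reference), normalised to crystal violet absorbance at 595 nm. Test compound or vehicle was applied for 18 hr to U937 monocytes first differentiated with PMA (100 ng/mL) for 48–72 hr.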

A further assay addresses Syk (Homo sapiens (Human), UniProt P43405). The experiment in a line: Syk enzyme inhibition (FRET, Z-LYTE). In kind it is biochemical. The procedure, abridged: as §1
Assay [3] deals with p38 MAPKα isoform (MAPK14) (Homo sapiens (Human), UniProt Q16539). In words: p38 MAPKα enzyme inhibition (FRET, Z-LYTE, Method 2). In kind it is biochemical. The procedure, abridged: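 Z-LYTE FRET: p38 MAPKα (80 ng/mL for Method 1, 200 ng/mL for Method 2, pre-dilution) preincubated 2 hr RT with compound (4–0.004 μg/mL solutions), activity read via MAPKAP-K2 phosphorylation after 1 hr RT and 1 hr protease development. Coumarin/fluorescein ratio gives phosphorylation; % inhibition versus uninhibited control, IC50 from concentration-response curve.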
Chain of p38 MAPKα isoform (MAPK14) (Q16539 whole entry, canonical isoform): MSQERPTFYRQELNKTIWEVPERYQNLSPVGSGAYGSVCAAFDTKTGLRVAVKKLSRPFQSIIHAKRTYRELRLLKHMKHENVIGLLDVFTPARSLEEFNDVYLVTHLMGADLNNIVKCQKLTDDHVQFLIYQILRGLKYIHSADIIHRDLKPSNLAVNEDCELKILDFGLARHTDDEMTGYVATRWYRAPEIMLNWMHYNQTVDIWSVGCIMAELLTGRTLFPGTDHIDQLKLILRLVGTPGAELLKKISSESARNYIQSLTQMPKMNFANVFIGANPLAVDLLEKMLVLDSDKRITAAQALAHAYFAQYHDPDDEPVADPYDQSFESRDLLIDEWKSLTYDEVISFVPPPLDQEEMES

The test system of assay [4] is PBMCs. In words: IFN gamma release in CD3/CD28 stimulated PBMC cells (assay c). In kind it is cell-based. As to conditions: Homo sapiens, read-out: IC50 Values for Inhibition of Cytokine Release, PBMCs IFNγ. The procedure, abridged: (§2)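 Sandwich ELISA of supernatant IL-2 and IFN gamma; IC50 from dose-response curve. Cells: density-gradient PBMCs from healthy subjects on plate-bound anti-CD3 0.3 μg/mL + anti-CD28 3 μg/mL, compound added, 3 d culture.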

The test system of assay [5] is PBMCs. The experiment in a line: IL-2 release in CD3/CD28 stimulated PBMC cells (assay c). In kind it is cell-based. As to conditions: Homo sapiens, read-out: IC50 Values for Inhibition of Cytokine Release, PBMCs IL-2. The procedure, abridged:
as §2

Chain of c-Src (P12931 whole entry, looked up): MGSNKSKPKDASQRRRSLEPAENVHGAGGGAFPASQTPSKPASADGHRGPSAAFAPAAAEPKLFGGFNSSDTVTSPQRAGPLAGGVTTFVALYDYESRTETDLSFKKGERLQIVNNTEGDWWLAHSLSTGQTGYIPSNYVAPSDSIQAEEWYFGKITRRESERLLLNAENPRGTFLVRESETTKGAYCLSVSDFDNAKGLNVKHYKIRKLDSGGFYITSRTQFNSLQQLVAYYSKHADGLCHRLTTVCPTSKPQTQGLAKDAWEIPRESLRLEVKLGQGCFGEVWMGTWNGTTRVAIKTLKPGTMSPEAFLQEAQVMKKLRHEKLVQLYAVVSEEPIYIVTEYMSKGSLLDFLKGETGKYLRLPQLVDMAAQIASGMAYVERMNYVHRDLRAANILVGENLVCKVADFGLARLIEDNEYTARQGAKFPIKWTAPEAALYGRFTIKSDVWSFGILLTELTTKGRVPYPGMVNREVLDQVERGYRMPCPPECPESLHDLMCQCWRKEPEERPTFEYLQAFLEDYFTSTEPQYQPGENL
Chain of GSK 3α (P49840 whole entry): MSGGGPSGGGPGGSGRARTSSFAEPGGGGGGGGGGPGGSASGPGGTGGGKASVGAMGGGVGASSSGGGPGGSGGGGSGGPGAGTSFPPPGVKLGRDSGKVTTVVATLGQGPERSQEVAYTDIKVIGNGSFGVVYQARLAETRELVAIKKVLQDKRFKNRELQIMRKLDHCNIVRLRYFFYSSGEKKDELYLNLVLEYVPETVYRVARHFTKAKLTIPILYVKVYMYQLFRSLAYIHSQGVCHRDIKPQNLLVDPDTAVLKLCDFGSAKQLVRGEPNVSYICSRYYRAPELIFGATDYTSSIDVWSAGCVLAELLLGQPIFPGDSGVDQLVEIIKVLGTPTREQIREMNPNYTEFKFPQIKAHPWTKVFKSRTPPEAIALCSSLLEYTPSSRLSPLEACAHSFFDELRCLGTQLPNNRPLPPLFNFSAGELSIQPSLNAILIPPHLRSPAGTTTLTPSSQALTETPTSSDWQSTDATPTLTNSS

On to `COc1cc(CO)cc(Nc2cc(Oc3ccc(NC(=O)Nc4cc(C(C)(C)C)cc(P(C)(C)=O)c4OC)c4ccccc34)ccn2)c1` [38(c), 1-(5-(tert-Butyl)-3-(dimethylphosphoryl)-2-methoxyphenyl)-3-(4-((2-((3-(hydroxymethyl)-5-methoxyphenyl)amino)pyridin-4-yl)oxy)naphthalen-1-yl)urea], for which the IC50 (as a rule, the concentration at which inhibition is half-maximal) in the assay with HT29 cells is 0.0073 µM; in the assay with PBMCs [1], 0.0017 µM; against c-Src, 0.012 µM; at GSK 3α it was 2.22 µM; at Syk it was 0.031 µM; in assay [3] it was 0.027 µM. In the assay on PBMCs [2], testing at 5 µg/mL gave an inhibition of 90.2%. In addition, the results for the “% β-catenin induction” value in the assay on d-U937 cells (test compound 1 μg/mL), with d-U937 cells (test compound 5 μg/mL) and in the assay with d-U937 cells (test compound 10 μg/mL) were 3.5%, 16.0% and 28.5%, respectively.

Turning to `COc1c(NC(=O)Nc2ccc(Oc3ccnc(NCc4ccccn4)c3)c3ccccc23)cc(C(C)(C)C)cc1P(C)(C)=O` [38(e), 1-(5-(tert-Butyl)-3-(dimethylphosphoryl)-2-methoxyphenyl)-3-(4-((2-((pyridin-2-ylmethyl)amino)pyridin-4-yl)oxy)naphthalen-1-yl)urea], the IC50 in the assay on HT29 cells was 0.0159 µM; in the assay with PBMCs [1], 0.0029 µM; against c-Src, 0.522 µM; at GSK 3α it was 1.98 µM; against Syk it was greater than 1.6 µM; in assay [3] it was 0.005 µM. Moreover, in the assay on PBMCs [2], testing at 5 µg/mL gave an inhibition of 41.6%. For the same compound, the figures for the “% β-catenin induction” value in the assay on d-U937 cells (test compound 1 μg/mL), in the assay with d-U937 cells (test compound 5 μg/mL) and in the assay on d-U937 cells (test compound 10 μg/mL) were 2.0%, 30.5% and 32.5%, respectively.

Regarding `COc1c(NC(=O)Nc2ccc(Oc3ccnc(Nc4ccccc4)c3)c3ccccc23)cc(C(C)(C)C)cc1C(=O)NCCN1CCC1` [38(a), N-(2-(Azetidin-1-yl)ethyl)-5-(tert-butyl)-2-methoxy-3-(3-(4-((2-(phenylamino)pyridin-4-yl)oxy)naphthalen-1-yl)ureido)benzamide], the IC50 in the assay on HT29 cells worked out at 0.0257 µM; in the assay on PBMCs [1], 0.0038 µM; against c-Src, 0.074 µM; on GSK 3α it was 3.32 µM; at Syk, 0.054 µM; in assay [3], 0.119 µM. In addition, in the assay with PBMCs [2], the inhibition (usually how much of the control response was suppressed) at 5 µg/mL was determined as 86.2%. Besides, the “% β-catenin induction” value in the assay on d-U937 cells (test compound 1 μg/mL) came out at 5.0%; with d-U937 cells (test compound 5 μg/mL), 10.7%; in the assay with d-U937 cells (test compound 10 μg/mL) it was 19.0%.

As for `COCCOCCOCCOc1cc(Nc2nccc(Oc3ccc(NC(=O)Nc4cc(C(C)(C)C)cc(CC(N)=O)c4OC)c4ccccc34)n2)cc(OC)c1` [15(c), 2-(5-(tert-butyl)-2-methoxy-3-(3-(4-((2-((3-methoxy-5-(2-(2-(2-methoxyethoxy)ethoxy)-ethoxy)phenyl)amino)pyrimidin-4-yl)oxy)naphthalen-1-yl)ureido)phenyl)acetamide], the IC50 in the assay on HT29 cells came to 0.0036 µM; with PBMCs [1], 0.0016 µM; at c-Src it was 0.016 µM; on GSK 3α, 0.844 µM; against Syk it was 0.103 µM; in [3] it was 0.052 µM. Besides, the “% β-catenin induction” value in the assay with d-U937 cells (test compound 1 μg/mL) is reported as 5.5%; in the assay with d-U937 cells (test compound 5 μg/mL), 36.0%; with d-U937 cells (test compound 10 μg/mL) it was 33.0%.

As to `COc1c(CC(N)=O)cc(C(C)(C)C)cc1NC(=O)Nc1ccc(Oc2ccnc(Nc3cc(C#N)cc(OCCN4CCOCC4)c3)c2)c2ccccc12` [Example 49, 2-(5-(tert-Butyl)-3-(3-(4-((2-((3-cyano-5-(2-morpholinoethoxy)phenyl)amino)pyridin-4-yl)oxy)naphthalen-1-yl)ureido)-2-methoxyphenyl)acetamide], the IC50 in the assay on PBMCs [4] was 0.0057 µM; in the assay with PBMCs [1], 0.0008 µM; on c-Src, 0.039 µM; on GSK 3α, 4.51 µM; in the assay on PBMCs [5] it was 0.091 µM; on Syk, greater than 1.34 µM. In assay [3], this compound returned an IC50 of 0.124 µM. In addition, at 5 µg/mL the inhibition with PBMCs [2] was 43.9%.

In the case of `COc1cc(Nc2cc(Oc3ccc(NC(=O)Nc4cc(C(C)(C)C)cc([S+](C)[O-])c4OC)c4ccccc34)ccn2)cc(C(N)=O)c1` (stereo not drawn) [Example 55, 3-((4-((4-(3-(5-(tert-Butyl)-2-methoxy-3-(methylsulfinyl)phenyl)ureido)naphthalen-1-yl)oxy)pyridin-2-yl)amino)-5-methoxybenzamide], the IC50 with PBMCs [4] was 0.0062 µM; in the assay with PBMCs [1] it was 0.0006 µM; at c-Src it was 0.037 µM; at GSK 3α, 2.48 µM; in the assay on PBMCs [5], 0.0312 µM; at Syk, greater than 0.692 µM. Half-maximal inhibition in [3] (IC50) required 0.038 µM. Besides, in the assay with PBMCs [2], the inhibition at 5 µg/mL came out at 51.7%.

`COc1cc(Nc2cc(Oc3ccc(NC(=O)Nc4cc(C(C)(C)C)cc(CC(N)=O)c4OC)c4ccccc34)ccn2)cc(S(C)(=O)=O)c1` [Example 56, 2-(5-(tert-Butyl)-2-methoxy-3-(3-(4-((2-((3-methoxy-5-(methylsulfonyl)phenyl)amino)pyridin-4-yl)oxy)naphthalen-1-yl)ureido)phenyl)acetamide]: the IC50 in the assay with PBMCs [4] is 0.0095 µM; in the assay with PBMCs [1] it was 0.0012 µM; at c-Src, 0.083 µM; at GSK 3α, 1.6 µM; with PBMCs [5], 0.234 µM; at Syk, greater than 1.43 µM. This compound also showed an IC50 in assay [3] of 0.188 µM. Besides, the inhibition at 5 µg/mL in the assay with PBMCs [2] amounted to 17.6%.

`COc1c(NC(=O)Nc2ccc(Oc3ccnc(Nc4cc(C#N)cc(OCCN5CCOCC5)c4)c3)c3ccccc23)cc(C(C)(C)C)cc1[S+](C)[O-]` (stereo not drawn) [Example 51, 1-(5-(tert-Butyl)-2-methoxy-3-(methylsulfinyl)phenyl)-3-(4-((2-((3-cyano-5-(2-morpholinoethoxy)phenyl)amino)pyridin-4-yl)oxy)naphthalen-1-yl)urea]: the IC50 in the assay with PBMCs [4] was 0.0752 µM; in the assay with PBMCs [1], 0.0013 µM; on c-Src it was 0.055 µM; at GSK 3α it was 8.71 µM; with PBMCs [5], 0.101 µM; against Syk, greater than 1.33 µM. Also, the IC50 in [3] worked out at 0.158 µM. In the assay on PBMCs [2], this compound returned an inhibition at 5 µg/mL of 28%.

Take `COc1c(NC(=O)Nc2ccc(Oc3ccnc(NCc4ccccn4)c3)c3ccccc23)cc(C(C)(C)C)cc1[S+](C)[O-]` (stereo not drawn) [Example 42, 1-(5-(tert-Butyl)-2-methoxy-3-(methylsulfinyl)phenyl)-3-(4-((2-((pyridin-2-ylmethyl)amino)pyridin-4-yl)oxy)naphthalen-1-yl)urea]: the IC50 in the assay on HT29 cells was 0.002 µM; in the assay with PBMCs [1] it was 0.0043 µM; against c-Src, greater than 1.64 µM; on GSK 3α it was 3.41 µM; at Syk it was greater than 1.64 µM; in [3], 0.008 µM. The compound further yielded an inhibition at 5 µg/mL with PBMCs [2] of 29.9%. For the same compound, the “% β-catenin induction” value with d-U937 cells (test compound 1 μg/mL) is recorded as −5.0%; in the assay on d-U937 cells (test compound 5 μg/mL) it was 12.0%; in the assay with d-U937 cells (test compound 10 μg/mL), 20.5%.

On to `COCCOCCOCCOc1cc(Nc2nccc(Oc3ccc(NC(=O)Nc4cc(C(C)(C)C)cc(OS(C)(=O)=O)c4OC)c4ccccc34)n2)cc(OC)c1` [Example 5, 5-(tert-Butyl)-2-methoxy-3-(3-(4-((2-((3-methoxy-5-(2-(2-(2-methoxyethoxy)ethoxy)-ethoxy)phenyl)amino)pyrimidin-4-yl)oxy)naphthalen-1-yl)ureido)phenyl methanesulfonate], for which the figures for the IC50 in the assay with HT29 cells, with PBMCs [1] and at GSK 3α were 0.0073 µM, 0.0087 µM and greater than 9.38 µM, respectively.
